The first experiment concerns the target His-Tagged hOGA (human O-GlcNAcase) (Homo sapiens (Human), UniProt O60502). Description: Human O-GlcNAcase enzyme inhibition assay (Example B01). The experiment is classed as biochemical. The conditions noted are these: OGA enzyme inhibition assay; activity range classes defined in μM; read-out: OGA IC50.
Chain of His-Tagged hOGA (human O-GlcNAcase) (O60502 whole entry): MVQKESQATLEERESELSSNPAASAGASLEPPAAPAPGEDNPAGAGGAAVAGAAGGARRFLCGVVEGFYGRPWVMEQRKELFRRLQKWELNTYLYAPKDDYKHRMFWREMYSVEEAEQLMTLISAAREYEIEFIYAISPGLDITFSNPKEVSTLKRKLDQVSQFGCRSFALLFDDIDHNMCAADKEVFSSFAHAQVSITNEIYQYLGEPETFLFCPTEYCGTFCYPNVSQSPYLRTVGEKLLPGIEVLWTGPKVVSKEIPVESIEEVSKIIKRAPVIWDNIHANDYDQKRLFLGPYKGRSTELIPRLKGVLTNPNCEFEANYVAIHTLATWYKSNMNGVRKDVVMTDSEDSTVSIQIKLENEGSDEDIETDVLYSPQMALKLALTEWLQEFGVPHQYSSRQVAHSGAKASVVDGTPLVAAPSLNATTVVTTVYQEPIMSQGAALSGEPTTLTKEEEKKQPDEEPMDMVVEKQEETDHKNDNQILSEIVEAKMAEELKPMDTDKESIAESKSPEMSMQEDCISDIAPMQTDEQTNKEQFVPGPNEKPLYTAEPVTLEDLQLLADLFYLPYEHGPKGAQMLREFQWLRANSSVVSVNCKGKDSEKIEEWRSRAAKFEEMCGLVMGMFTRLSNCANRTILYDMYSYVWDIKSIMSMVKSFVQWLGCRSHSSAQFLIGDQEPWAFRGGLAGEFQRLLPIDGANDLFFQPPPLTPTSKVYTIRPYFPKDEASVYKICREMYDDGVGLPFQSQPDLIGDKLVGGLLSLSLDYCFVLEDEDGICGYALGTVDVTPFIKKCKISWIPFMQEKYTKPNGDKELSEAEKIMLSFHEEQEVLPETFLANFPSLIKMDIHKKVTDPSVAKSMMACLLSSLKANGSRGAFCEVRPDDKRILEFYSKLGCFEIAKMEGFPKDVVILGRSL
For the compound `CCCNc1nnc(N2CCN([C@@H](C)c3ccc4c(c3)OCO4)CC2)s1` [Example 142, (S)-5-(4-(1-(benzo[d][1,3]dioxol-5-yl)ethyl)piperazin-1-yl)-N-propyl-1,3,4-thiadiazol-2-amine], the IC50 lay in the range of 0.05 to 0.2 µM.

Consider `CC(C)C(=O)Nc1nnc(N2CCN(C(C)c3ccc4c(c3)OCO4)CC2)s1` (racemic) [Example 107, N-(5-(4-(1-(benzo[d][1,3]dioxol-5-yl)ethyl)piperazin-1-yl)-1,3,4-thiadiazol-2-yl)isobutyramide], for which the IC50 is < 0.05 µM.

For `COc1cnc(N2CCN([C@@H](C)c3ccc4c(c3)OCO4)CC2)nc1` [Example 195, (S)-2-(4-(1-(benzo[d][1,3]dioxol-5-yl)ethyl)piperazin-1-yl)-5-methoxypyrimidine], the IC50 was < 0.05 µM.

For the compound `CC(=O)Nc1nnc(N2CCN(C(C)c3ccc4ncsc4c3)CC2)s1` (racemic) [Example 179, N-(5-(4-(1-(benzo[d]thiazol-6-yl)ethyl)piperazin-1-yl)-1,3,4-thiadiazol-2-yl)acetamide], the IC50 lay within 1 to 10 µM.

Turning to `C[C@@H](c1ccc2c(c1)OCO2)N1CCN(c2ncc(NC(=O)CCO)cn2)CC1` [Example 177, (S)-N-(2-(4-(1-(benzo[d][1,3]dioxol-5-yl)ethyl)piperazin-1-yl)pyrimidin-5-yl)-3-hydroxypropanamide], the IC50 is < 0.05 µM.

As to `CC(=O)Nc1nnc(N2CCN(C(C)c3ccc4c(c3)OCC4)CC2)s1` (racemic) [Example 128, N-(5-(4-(1-(2,3-dihydrobenzofuran-6-yl)ethyl)piperazin-1-yl)-1,3,4-thiadiazol-2-yl)acetamide], the IC50 is < 0.05 µM.

For the compound `CC(c1ccc2c(c1)OCO2)N1CCN(c2ccc(N)cn2)CC1` (racemic) [Example 58, 6-(4-(1-(Benzo[d][1,3]dioxol-5-yl)ethyl)piperazin-1-yl)pyridin-3-amine], the IC50 lay within 0.05 to 0.2 µM.

Take `CC(c1ccc2c(c1)OCO2)N1CCN(c2ncc(CO)cn2)CC1` (racemic) [Example 52, (2-(4-(1-(benzo[d][1,3]dioxol-5-yl)ethyl)piperazin-1-yl)pyrimidin-5-yl)methanol]: the IC50 was < 0.05 µM.

In the case of `CNC(=O)c1cnc(N2CCN([C@@H](C)c3ccc4c(c3)OCO4)CC2)nc1` [Example 134, (S) 2-(4-(1-(benzo[d][1,3]dioxol-5-yl)ethyl)piperazin-1-yl)-N-methylpyrimidine-5-carboxamide], the IC50 is < 0.05 µM.

Regarding `CC(=O)Nc1nnc(N2CCN(C(C)c3ccc4c(Cl)ccnc4c3)CC2)s1` (racemic) [Example 100, N-(5-(4-(1-(4-chloroquinolin-7-yl)ethyl)piperazin-1-yl)-1,3,4-thiadiazol-2-yl)acetamide], the half-maximal inhibitory concentration (IC50) lay within 0.2 to 1 µM.

As to `CC(=O)Nc1nnc(N2CCN(C(C)c3ccc(F)c(F)c3)CC2)s1` (racemic) [Example 76, N-(5-(4-(1-(3,4-difluorophenyl)ethyl)piperazin-1-yl)-1,3,4-thiadiazol-2-yl)acetamide], the concentration for half-maximal inhibition (IC50) lay within 1 to 10 µM.

`CC(=O)Nc1nnc(N2CCN(C(C)c3ccc4cccnc4c3)CC2)s1` (racemic) [Example 115, N-(5-(4-(1-(quinolin-7-yl)ethyl)piperazin-1-yl)-1,3,4-thiadiazol-2-yl)acetamide]: the IC50 was in the range of 0.05 to 0.2 µM.

Turning to `C[C@@H](c1ccc2c(c1)OCO2)N1CCN(c2ncc(Br)cn2)CC1` [Example 175, (S)-2-(4-(1-(benzo[d][1,3]dioxol-5-yl)ethyl)piperazin-1-yl)-5-bromopyrimidine], the concentration for half-maximal inhibition (IC50) is < 0.05 µM.

On to `CC(c1ccc2c(c1)OCO2)N1CCN(c2nnc(N)s2)CC1` (racemic) [Example 41, 5-(4-(1-(benzo[d][1,3]dioxol-5-yl)ethyl)piperazin-1-yl)-1,3,4-thiadiazol-2-amine], for which the IC50 was in the range of 0.05 to 0.2 µM.

In the case of `Cc1cnc(N2CCN(C(C)c3ccc4c(c3)OCO4)CC2)s1` (racemic) [Example 36], the half-inhibitory concentration (IC50) was in the range of 0.05 to 0.2 µM.

On to `Cc1cnc2cc(C(C)N3CCN(c4ncccn4)CC3)ccc2c1` (racemic) [Example 201, 3-Methyl-7-(1-(4-(pyrimidin-2-yl)piperazin-1-yl)ethyl)quinoline], for which the IC50 fell in the range of 1 to 10 µM.

“N-(2-(4-(1-(3,4-Dichlorophenyl)ethyl)piperazin-1-yl)thiazol-5-yl)acetamide [Example 87]”: the IC50 fell in the range of 1 to 10 µM.

`CC(=O)Nc1ccnc(N2CCN(C(C)c3ccc4c(c3)OCO4)CC2)n1` (racemic) [Example 23, N-(2-(4-(1-(Benzo[d][1,3]dioxol-5-yl)ethyl)piperazin-1-yl)pyrimidin-4-yl)acetamide]: the IC50 fell in the range of 0.05 to 0.2 µM.

With `CC(=O)Nc1cnc(N2CCN(C(C)c3cccc4cccnc34)CC2)nc1` (racemic) [Example 127, N-(2-(4-(1-(quinolin-8-yl)ethyl)piperazin-1-yl)pyrimidin-5-yl)acetamide], the IC50 was 1 to 10 µM.

Turning to `CC(=O)Nc1cnc(N2CCN(C(C)c3ccc4c(Cl)ccnc4c3)CC2)nc1` (racemic) [Example 101, N-(2-(4-(1-(4-chloroquinolin-7-yl)ethyl)piperazin-1-yl)pyrimidin-5-yl)acetamide], the IC50 lay within 0.2 to 1 µM.

Consider `CC(=O)Nc1cnc(N2CCN(C(C)c3ccc4nsnc4c3)CC2)nc1` (racemic) [Example 122, N-(2-(4-(1-(benzo[c][1,2,5]thiadiazol-5-yl)ethyl)piperazin-1-yl)pyrimidin-5-yl)acetamide], for which the IC50 is < 0.05 µM.

On to `C[C@@H](c1ccc2c(c1)OCO2)N1CCN(c2ccc(C(C)(C)O)cn2)CC1` [Example 190, (S)-2-(6-(4-(1-(benzo[d][1,3]dioxol-5-yl)ethyl)piperazin-1-yl)pyridin-3-yl)propan-2-ol], for which the half-maximal inhibitory concentration (IC50) is < 0.05 µM.

With `CC(=O)Nc1cnc(N2CCN(C(C)c3ccc4c(c3)OC(F)(F)O4)CC2)nc1` (racemic) [Example 118], the IC50 is 0.2 to 1 µM.

In the case of `CC(=O)Nc1nccc(N2CCN(C(C)c3ccc4c(c3)OCO4)CC2)n1` (racemic) [Example 54, N-(4-(4-(1-(Benzo[d][1,3]dioxol-5-yl)ethyl)piperazin-1-yl)pyrimidin-2-yl)acetamide], the IC50 fell in the range of 0.05 to 0.2 µM.

For the compound `C[C@@H](c1ccc2c(c1)OCO2)N1CCN(c2ncc(C3(O)CCCCC3)cn2)CC1` [Example 180, (S)-1-(2-(4-(1-(benzo[d][1,3]dioxol-5-yl)ethyl)piperazin-1-yl)pyrimidin-5-yl)cyclohexan-1-ol], the concentration for half-maximal inhibition (IC50) was < 0.05 µM.

As to `C[C@@H](c1ccc2c(c1)OCO2)N1CCN(c2nnc(NC(=O)CCO)s2)CC1` [Example 171], the IC50 is < 0.05 µM.

As to `CC(=O)N(C)Cc1cnc(N2CCN(C(C)c3ccc4c(c3)OCO4)CC2)s1` (racemic) [Example 80, N-((2-(4-(1-(benzo[d][1,3]dioxol-5-yl)ethyl)piperazin-1-yl)thiazol-5-yl)methyl)-N-methylacetamide], the IC50 was < 0.05 µM.

The experiment is the same for the next values; noted with them: measured according to Example B01.
As to `CC(=O)Nc1nnc(N2CCN(C(C)c3ccc4c(c3)OCC4)CC2)s1` (racemic) [Example 128, N-(5-(4-(1-(2,3-dihydrobenzofuran-6-yl)ethyl)piperazin-1-yl)-1,3,4-thiadiazol-2-yl)acetamide], the “OGA inhibitor activity (in words)” value was “very potent OGA inhibitors”.

In the case of `CC(c1ccc2c(c1)OCO2)N1CCN(c2ncc(CO)cn2)CC1` (racemic) [Example 52, (2-(4-(1-(benzo[d][1,3]dioxol-5-yl)ethyl)piperazin-1-yl)pyrimidin-5-yl)methanol], the “OGA inhibitor activity (in words)” value is on record as “very potent OGA inhibitors”.

As for `CNC(=O)c1cnc(N2CCN([C@@H](C)c3ccc4c(c3)OCO4)CC2)nc1` [Example 134, (S) 2-(4-(1-(benzo[d][1,3]dioxol-5-yl)ethyl)piperazin-1-yl)-N-methylpyrimidine-5-carboxamide], the “OGA inhibitor activity (in words)” value was “very potent OGA inhibitors”.

In the case of `C[C@@H](c1ccc2c(c1)OCO2)N1CCN(c2ncc(C3(O)CCCCC3)cn2)CC1` [Example 180, (S)-1-(2-(4-(1-(benzo[d][1,3]dioxol-5-yl)ethyl)piperazin-1-yl)pyrimidin-5-yl)cyclohexan-1-ol], the “OGA inhibitor activity (in words)” value is listed as “very potent OGA inhibitors”.

Take `CC(c1ccc(Cl)cc1)N1CCN(c2ccc3ccccc3n2)CC1` (centres unmarked) [compound 5 of WO 99/21850, reference compound]: the “OGA inhibitor activity (in words)” value is “not active as OGA inhibitors”.

A word on the IC50: it is the concentration needed to halve the response being measured.

The values above are taken from patent US10336775B2 (Asceneuron SA, priority 2014, dated 2019).
